Laboratory results taken from patent US9302999B2, “Substituted triazoles as herbicides” (E. I. DU PONT DE NEMOURS AND COMPANY, priority 2012, dated 2016).

How the values were obtained:
Format in all cases: in vivo
rice (Oryza sativa) = experiment: Test C flooded paddy test: rice; details: scale 0 to 100 (0 no effect, 100 complete control)
Summary of the method: (§1)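 Rating: visual, 0–100 (100 = complete control), versus untreated controls after 13 to 15 greenhouse days. Treatment went into paddy water held at 3 cm over the soil, on plants grown to two leaves.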

[1] = system: velvetleaf (Abutilon theophrasti); experiment: Test A pre-/postemergence: velvetleaf; details: for Velvetleaf plant response rating: Postemergence; for Plant response rating, Velvetleaf: Preemergence
Summary of the method: (§2)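 Pre: directed soil spray after planting in loam + sand. Post: same formulation (non-phytotoxic solvent + surfactant) on 1–2-leaf plants, 2–10 cm. Greenhouse ~10 d; visual injury 0–100 vs untreated.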

[2] = system: pigweed (Amaranthus retroflexus); experiment: Test A pre-/postemergence: pigweed; details: for Pigweed plant response rating: Postemergence; for Plant response rating, Pigweed: Preemergence
Summary of the method: as §2

corn (Zea mays) = experiment: Test A pre-/postemergence: corn; details: for Corn plant response rating: Postemergence; for Plant response rating, Corn: Preemergence
Summary of the method: as §2

[3] = system: crabgrass, large (large crabgrass, Digitaria sanguinalis); experiment: Test A pre-/postemergence: crabgrass, large; details: for Crabgrass, Large plant response rating: Postemergence; for Plant response rating, Crabgrass, Large: Preemergence
Summary of the method: as §2

[4] = system: ducksalad (Heteranthera limosa); experiment: Test C flooded paddy test: ducksalad; details: scale 0 to 100 (0 no effect, 100 complete control)
Summary of the method: as §1

[5] = system: wheat (Triticum aestivum); experiment: Test A pre-/postemergence: wheat; details: for Wheat plant response rating: Postemergence; for Plant response rating, Wheat: Preemergence
Summary of the method: as §2

[6] = system: sedge, umbrella (small-flower umbrella sedge, Cyperus difformis); experiment: Test C flooded paddy test: sedge, umbrella; details: scale 0 to 100 (0 no effect, 100 complete control)
Summary of the method: as §1

[7] = system: barnyardgrass (Echinochloa crus-galli); experiment: Test C flooded paddy test: barnyardgrass; details: scale 0 to 100 (0 no effect, 100 complete control)
Summary of the method: as §1

[8] = system: foxtail, giant (giant foxtail, Setaria faberii); experiment: Test A pre-/postemergence: foxtail, giant; details: for Foxtail, Giant plant response rating: Postemergence; for Plant response rating, Foxtail, Giant: Preemergence
Summary of the method: as §2

[9] = system: barnyardgrass (Echinochloa crus-galli); experiment: Test A pre-/postemergence: barnyardgrass; details: for Barnyardgrass plant response rating: Postemergence; for Plant response rating, Barnyardgrass: Preemergence
Summary of the method: as §2

[10] = system: morningglory (Ipomoea spp.); experiment: Test A pre-/postemergence: morningglory; details: for Morningglory plant response rating: Postemergence; for Plant response rating, Morningglory: Preemergence
Summary of the method: as §2

[11] = Flood (flooded paddy test), 62 g ai/ha, visual rating after 13 to 15 days
[12] = Flood (flooded paddy test), 125 g ai/ha, visual rating after 13 to 15 days
[13] = Flood (flooded paddy test), 250 g ai/ha, visual rating after 13 to 15 days
[14] = 125 g ai/ha, 0 to 100 scale, 0 is no effect, 100 is complete control
[15] = 500 g ai/ha, visual rating on 0 to 100 scale (0 no effect, 100 complete control), approximately ten days
[16] = 125 g ai/ha, 0 to 100 scale (0 no effect, 100 complete control)
[17] = 500 g ai/ha, 0 to 100 scale, 0 is no effect, 100 is complete control

COc1nn(-c2ccc(C(F)(F)F)cc2)nc1Cn1nc(C(F)(F)F)cc1C(F)(F)F [Compound 30]
Plant response rating, Rice (rice (Oryza sativa); [11]): 0 | Plant response rating, Rice (rice (Oryza sativa); [12]): 0 | Plant response rating, Rice (rice (Oryza sativa); [13]): 0 | Plant response rating, Rice (rice (Oryza sativa); Flood, 31 g ai/ha): 0 | Velvetleaf plant response rating [1, 14]: 0 | Velvetleaf plant response rating [1, 15]: 0 | Plant response rating, Velvetleaf [1, 16]: 0 | Plant response rating, Velvetleaf [1, 17]: 0 | Pigweed plant response rating [2, 14]: 0 | Pigweed plant response rating [2, 15]: 0 | Plant response rating, Pigweed [2, 16]: 0 | Plant response rating, Pigweed [2, 17]: 0 | Corn plant response rating (corn (Zea mays); [14]): 0 | Corn plant response rating (corn (Zea mays); [15]): 0 | Plant response rating, Corn (corn (Zea mays); [16]): 0 | Plant response rating, Corn (corn (Zea mays); [17]): 0 | Crabgrass, Large plant response rating [3, 14]: 0 | Crabgrass, Large plant response rating [3, 15]: 0 | Plant response rating, Crabgrass, Large [3, 16]: 0 | Plant response rating, Crabgrass, Large [3, 17]: 0 | Plant response rating, Ducksalad [4, 11]: 0 | Plant response rating, Ducksalad [4, 12]: 0 | Plant response rating, Ducksalad [4, 13]: 0 | Plant response rating, Ducksalad ([4]; Flood, 31 g ai/ha): 0 | Wheat plant response rating [5, 14]: 0 | Wheat plant response rating [5, 15]: 0 | Plant response rating, Wheat [5, 16]: 0 | Plant response rating, Wheat [5, 17]: 0 | Plant response rating, Sedge, Umbrella [6, 11]: 0 | Plant response rating, Sedge, Umbrella [6, 12]: 20 | Plant response rating, Sedge, Umbrella [6, 13]: 30 | Plant response rating, Sedge, Umbrella ([6]; Flood, 31 g ai/ha): 0 | Plant response rating, Barnyardgrass [7, 11]: 0 | Plant response rating, Barnyardgrass [7, 12]: 0 | Plant response rating, Barnyardgrass [7, 13]: 0 | Plant response rating, Barnyardgrass ([7]; Flood, 31 g ai/ha): 0 | Foxtail, Giant plant response rating [8, 14]: 0 | Foxtail, Giant plant response rating [8, 15]: 0 | Plant response rating, Foxtail, Giant [8, 16]: 0 | Plant response rating, Foxtail, Giant [8, 17]: 0 | Barnyardgrass plant response rating [9, 14]: 0 | Barnyardgrass plant response rating [9, 15]: 0 | Plant response rating, Barnyardgrass [9, 16]: 0 | Plant response rating, Barnyardgrass [9, 17]: 0 | Morningglory plant response rating [10, 14]: 0 | Morningglory plant response rating [10, 15]: 0 | Plant response rating, Morningglory [10, 16]: 0 | Plant response rating, Morningglory [10, 17]: 0

COc1cc(Cc2nn(-c3ccc(C(F)(F)F)cc3)nc2C)ccn1 [Compound 31]
Plant response rating, Rice (rice (Oryza sativa); [11]): 0 | Plant response rating, Rice (rice (Oryza sativa); [12]): 0 | Plant response rating, Rice (rice (Oryza sativa); [13]): 0 | Plant response rating, Rice (rice (Oryza sativa); Flood, 31 g ai/ha): 0 | Velvetleaf plant response rating [1, 14]: 10 | Velvetleaf plant response rating [1, 15]: 20 | Plant response rating, Velvetleaf [1, 16]: 0 | Plant response rating, Velvetleaf [1, 17]: 0 | Pigweed plant response rating [2, 14]: 60 | Pigweed plant response rating [2, 15]: 90 | Plant response rating, Pigweed [2, 16]: 0 | Plant response rating, Pigweed [2, 17]: 50 | Corn plant response rating (corn (Zea mays); [14]): 10 | Corn plant response rating (corn (Zea mays); [15]): 20 | Plant response rating, Corn (corn (Zea mays); [16]): 0 | Plant response rating, Corn (corn (Zea mays); [17]): 0 | Crabgrass, Large plant response rating [3, 14]: 10 | Crabgrass, Large plant response rating [3, 15]: 50 | Plant response rating, Crabgrass, Large [3, 16]: 0 | Plant response rating, Crabgrass, Large [3, 17]: 60 | Plant response rating, Ducksalad [4, 11]: 0 | Plant response rating, Ducksalad [4, 12]: 0 | Plant response rating, Ducksalad [4, 13]: 0 | Plant response rating, Ducksalad ([4]; Flood, 31 g ai/ha): 0 | Wheat plant response rating [5, 14]: 0 | Wheat plant response rating [5, 15]: 10 | Plant response rating, Wheat [5, 16]: 0 | Plant response rating, Wheat [5, 17]: 0 | Plant response rating, Sedge, Umbrella [6, 11]: 0 | Plant response rating, Sedge, Umbrella [6, 12]: 0 | Plant response rating, Sedge, Umbrella [6, 13]: 0 | Plant response rating, Sedge, Umbrella ([6]; Flood, 31 g ai/ha): 0 | Plant response rating, Barnyardgrass [7, 11]: 0 | Plant response rating, Barnyardgrass [7, 12]: 0 | Plant response rating, Barnyardgrass [7, 13]: 0 | Plant response rating, Barnyardgrass ([7]; Flood, 31 g ai/ha): 0 | Foxtail, Giant plant response rating [8, 14]: 10 | Foxtail, Giant plant response rating [8, 15]: 50 | Plant response rating, Foxtail, Giant [8, 16]: 30 | Plant response rating, Foxtail, Giant [8, 17]: 90 | Barnyardgrass plant response rating [9, 14]: 10 | Barnyardgrass plant response rating [9, 15]: 10 | Plant response rating, Barnyardgrass [9, 16]: 0 | Plant response rating, Barnyardgrass [9, 17]: 0 | Morningglory plant response rating [10, 14]: 20 | Morningglory plant response rating [10, 15]: 100 | Plant response rating, Morningglory [10, 16]: 0 | Plant response rating, Morningglory [10, 17]: 0
